Patent US20250325552A1, “SUBSTITUTED THIADIAZOLYL DERIVATIVES AS DNA POLYMERASE THETA INHIBITORS” (IDEAYA Biosciences, Inc., priority 2020, published 2025)

Target: Polθ theta (1-899) (hPolQ) (Homo sapiens (Human), UniProt O75417)
Test: Biological Assay 1: Polθ ATPase activity, NADH oxidation-coupled enzymatic assay (10 nM enzyme, 30 min)
Type: biochemical
Details: Polθ (1-899) 10 nM, 100 μM ATP, 300 nM dT50 ssDNA; Examples 1 to 268; read-out: ATPase NADH coupling:Standard Screening:hPolQ IC50
Procedure: The ability of the compounds of Formula (I), (II), (III), (IV), or Table 1 (Examples 1 to Example 268) to inhibit ATPase activity of Polθ theta (1-899) was determined using the assay described below.
Polθ Theta ATPase activity was determined by measuring the rate of ATP turn over in a NADH oxidation-coupled enzymatic assay. 10-point dilution series of compounds were used in a 384 well format for the inhibition assays. Polθ theta (1-899) (10 nM) in assay buffer (20 mM Tris HCl (pH 7.80), 80 mM KCl, 10 mM MgCl2, 1 mM DTT, 0.01% BSA, 0.01% Tween, 5% glycerol) was transferred to the test wells (20 μL), except the low control wells (20 μL of assay buffer was added to the low control wells). The plate was then incubated at room temperature for 15 min. An equal volume (20 μL) of 100 μM ATP, 300 nM dT50 (single-stranded DNA (ssDNA) containing 50 thymine bases), 300 μM NADH, 6 mM PEP, 10 U/mL lactate dehydrogenase and U/mL pyruvate kinase in assay buffer was added to all the test wells. The plate was then centrifuged at 1000 rpm for 1 min. The reaction was monitored for 30 min by measuring absorbance (λ=340 nm) in a Tecan Spark multimode plate reader every minute. The high control (DMSO with enzyme) with low absorbance intensity represents no inhibition of ATPase reaction while the low control (DMSO with buffer) with high absorbance intensity represents full inhibition of ATPase activity. Slope of the reaction progress curves were used to calculate the rate of ATP hydrolysis. The rates were used to determine the percent inhibition using a four-parameter inhibition model to generate IC50, Hill slope and max inhibition.

Chain of Polθ theta (1-899) (hPolQ) (O75417 1-899): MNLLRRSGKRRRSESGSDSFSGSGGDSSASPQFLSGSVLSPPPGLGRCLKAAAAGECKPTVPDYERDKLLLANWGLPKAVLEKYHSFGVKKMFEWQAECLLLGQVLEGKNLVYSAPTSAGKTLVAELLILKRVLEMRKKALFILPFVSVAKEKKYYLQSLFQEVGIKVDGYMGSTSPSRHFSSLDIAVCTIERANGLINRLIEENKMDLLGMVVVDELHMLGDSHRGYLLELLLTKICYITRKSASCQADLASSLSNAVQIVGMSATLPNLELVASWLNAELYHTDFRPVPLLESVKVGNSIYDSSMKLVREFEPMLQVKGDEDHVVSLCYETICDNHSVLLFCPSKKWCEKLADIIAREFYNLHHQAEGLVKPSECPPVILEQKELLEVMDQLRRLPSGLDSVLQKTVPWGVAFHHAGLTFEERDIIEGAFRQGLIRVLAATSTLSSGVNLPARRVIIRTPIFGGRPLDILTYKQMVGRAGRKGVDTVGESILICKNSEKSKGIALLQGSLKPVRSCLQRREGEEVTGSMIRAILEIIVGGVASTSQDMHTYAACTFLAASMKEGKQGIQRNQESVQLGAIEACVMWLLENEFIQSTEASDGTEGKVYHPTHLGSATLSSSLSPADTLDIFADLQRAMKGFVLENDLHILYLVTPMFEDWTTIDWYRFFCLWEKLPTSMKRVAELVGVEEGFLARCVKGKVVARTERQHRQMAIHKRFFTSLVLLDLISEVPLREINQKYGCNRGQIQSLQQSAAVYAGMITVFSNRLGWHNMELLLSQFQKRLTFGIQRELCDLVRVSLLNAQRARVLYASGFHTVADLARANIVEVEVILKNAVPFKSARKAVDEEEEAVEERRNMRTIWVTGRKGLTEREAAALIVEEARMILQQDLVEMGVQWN

IC50 [nM] | Compound
≤ 200 | COc1cccc(F)c1-c1cc(C)ncc1C(=O)Nc1nnc(OCc2ccc(C(C)O)cn2)s1 (racemic) [Example 22, 4-(2-fluoro-6-methoxyphenyl)-N-(5-((5-(1-hydroxyethyl)pyridin-2-yl)methoxy)-1,3,4-thiadiazol-2-yl)-6-methylnicotinamide]
≤ 200 | COc1cccc(F)c1-c1cc(C)ncc1C(=O)Nc1nnc(OCc2ccc(S(C)(=N)=O)cc2)s1 (racemic) [Example 79, 4-(2-fluoro-6-methoxyphenyl)-6-methyl-N-(5-((4-(S-methylsulfonimidoyl)benzyl)oxy)-1,3,4-thiadiazol-2-yl)nicotinamide]
≤ 200 | COc1cccc(F)c1-c1cc(C)ncc1C(=O)Nc1nnc(OCc2ccc3c(n2)CCCC3O)s1 (racemic) [Example 92, 4-(2-fluoro-6-methoxyphenyl)-N-(5-((5-hydroxy-5,6,7,8-tetrahydroquinolin-2-yl)methoxy)-1,3,4-thiadiazol-2-yl)-6-methylnicotinamide]
≤ 200 | COc1cnc(Cl)cc1-c1cc(C)ncc1C(=O)Nc1nnc(OCC2CCO2)s1 (racemic) [Example 165, 2′-chloro-5′-methoxy-6-methyl-N-(5-(oxetan-2-ylmethoxy)-1,3,4-thiadiazol-2-yl)-(4,4′-bipyridine)-3-carboxamide]
≤ 200 | COc1cnc(Cl)cc1-c1cc(C)ncc1C(=O)Nc1nnc(OCC2CCOC2)s1 (racemic) [Example 167, 2′-chloro-5′-methoxy-6-methyl-N-(5-((tetrahydrofuran-3-yl)methoxy)-1,3,4-thiadiazol-2-yl)-(4,4′-bipyridine)-3-carboxamide]
≤ 200 | COc1cnc(Cl)cc1-c1cc(C)ncc1C(=O)Nc1nnc(OCC2CCNC2)s1 (racemic) [Example 175, 2′-chloro-5′-methoxy-6-methyl-N-(5-(pyrrolidin-3-ylmethoxy)-1,3,4-thiadiazol-2-yl)-(4,4′-bipyridine)-3-carboxamide]
≤ 200 | COc1cnc(Cl)cc1-c1cc(C)ncc1C(=O)Nc1nnc(OC[C@@H]2CO[C@H](CO)CO2)s1 (racemic) [Example 237, rel-2′-chloro-N-(5-(((2s,5r)-5-(hydroxymethyl)-1,4-dioxan-2-yl)methoxy)-1,3,4-thiadiazol-2-yl)-5′-methoxy-6-methyl-(4,4′-bipyridine)-3-carboxamide]
≤ 200 | COc1cnc(Cl)cc1-c1cc(C)ncc1C(=O)Nc1nnc(OC[C@@H]2CO[C@@H](CO)CO2)s1 (racemic) [Example 238, rel-2′-chloro-N-(5-(((2s,5s)-5-(hydroxymethyl)-1,4-dioxan-2-yl)methoxy)-1,3,4-thiadiazol-2-yl)-5′-methoxy-6-methyl-(4,4′-bipyridine)-3-carboxamide]
≤ 200 | Cc1cc(-c2cc(Cl)ncc2OC(F)F)c(C(=O)Nc2nnc(OCC3CCOC3)s2)cn1 (racemic) [Example 259, 2′-chloro-5′-(difluoromethoxy)-6-methyl-N-(5-((tetrahydrofuran-3-yl)methoxy)-1,3,4-thiadiazol-2-yl)-(4,4′-bipyridine)-3-carboxamide]
≤ 200 | COc1cnc(Br)cc1-c1cc(C)ncc1C(=O)Nc1nnc(OCC2CCOC2)s1 (racemic) [Example 260, 2′-bromo-5′-methoxy-6-methyl-N-(5-((tetrahydrofuran-3-yl)methoxy)-1,3,4-thiadiazol-2-yl)-(4,4′-bipyridine)-3-carboxamide]
≤ 200 | COc1cnc(Cl)cc1-c1cc(C)ncc1C(=O)Nc1nnc(OC[C@]2(C)CCOC2)s1 (single isomer, unassigned) [Example 160]
≤ 200 | COc1cnc(Cl)cc1-c1cc(C)ncc1C(=O)Nc1nnc(OC[C@@]2(C)CCOC2)s1 (single isomer, unassigned) [Example 161]
≤ 200 | COc1cnc(Cl)cc1-c1cc(C)ncc1C(=O)Nc1nnc(OC[C@@H]2CCO2)s1 (single isomer, unassigned) [Example 169]
≤ 200 | COc1cnc(Cl)cc1-c1cc(C)ncc1C(=O)Nc1nnc(OC[C@@H]2CCO[C@@H]2C)s1 (single isomer, unassigned) [Example 179]
≤ 200 | COc1cnc(Cl)cc1-c1cc(C)ncc1C(=O)Nc1nnc(OC[C@@H]2CCO[C@H]2C)s1 (single isomer, unassigned) [Example 180]
≤ 200 | COc1cnc(Cl)cc1-c1cc(C)ncc1C(=O)Nc1nnc(OC[C@H]2CCO[C@H]2C)s1 (single isomer, unassigned) [Example 181]
≤ 200 | COc1cnc(Cl)cc1-c1cc(C)ncc1C(=O)Nc1nnc(OC[C@H]2CCO[C@@H]2C)s1 (single isomer, unassigned) [Example 182]
≤ 200 | COc1cnc(Cl)cc1-c1cc(C)ncc1C(=O)Nc1nnc(OC[C@H]2CCOC2(C)C)s1 (single isomer, unassigned) [Example 190]
≤ 200 | COc1cnc(Cl)cc1-c1cc(C)ncc1C(=O)Nc1nnc(OC[C@@H]2CCOC2(C)C)s1 (single isomer, unassigned) [Example 191]
≤ 200 | COc1cnc(Cl)cc1-c1cc(C)ncc1C(=O)Nc1nnc(OC[C@H]2CC[C@H](O)C2)s1 (single isomer, unassigned) [Example 208]

IC50 [nM] | Compound
≤ 200 | COc1cnc(Cl)cc1-c1cc(C)ncc1C(=O)Nc1nnc(OC[C@@H]2CC[C@@H](O)C2)s1 (single isomer, unassigned) [Example 209]
≤ 200 | COc1cnc(Cl)cc1-c1cc(C)ncc1C(=O)Nc1nnc(OC[C@H]2CC[C@@H](O)C2)s1 (single isomer, unassigned) [Example 210]
≤ 200 | COc1cnc(Cl)cc1-c1cc(C)ncc1C(=O)Nc1nnc(OC[C@@H]2CC[C@H](O)C2)s1 (single isomer, unassigned) [Example 211]
≤ 200 | COc1cnc(Cl)cc1-c1cc(C)ncc1C(=O)Nc1nnc(OC[C@@H]2COCC(C)(C)O2)s1 (single isomer, unassigned) [Example 220]
≤ 200 | COc1cnc(Cl)cc1-c1cc(C)ncc1C(=O)Nc1nnc(OC[C@H]2COCC(C)(C)O2)s1 (single isomer, unassigned) [Example 221]
≤ 200 | COc1cnc(Cl)cc1-c1cc(C)ncc1C(=O)Nc1nnc(OC[C@@H]2COC(C)(C)CO2)s1 (single isomer, unassigned) [Example 222]
≤ 200 | COc1cnc(Cl)cc1-c1cc(C)ncc1C(=O)Nc1nnc(OC[C@H]2COC(C)(C)CO2)s1 (single isomer, unassigned) [Example 223]
≤ 200 | COc1cnc(Cl)cc1-c1cc(C)ncc1C(=O)Nc1nnc(OC[C@@H]2COC3(CCC3)C2)s1 (single isomer, unassigned) [Example 226]
≤ 200 | COc1cnc(Cl)cc1-c1cc(C)ncc1C(=O)Nc1nnc(OC[C@H]2COC3(CCC3)C2)s1 (single isomer, unassigned) [Example 227]
≤ 200 | COc1cnc(Cl)cc1-c1cc(C)ncc1C(=O)Nc1nnc(OC[C@@]23COC[C@@H]2C3)s1 (single isomer, unassigned) [Example 230]
≤ 200 | COc1cnc(Cl)cc1-c1cc(C)ncc1C(=O)Nc1nnc(OC[C@]23COC[C@H]2C3)s1 (single isomer, unassigned) [Example 231]
≤ 200 | COc1cnc(Br)cc1-c1cc(C)ncc1C(=O)Nc1nnc(OC[C@H]2CCOC2)s1 (single isomer, unassigned) [Example 244]
≤ 200 | COc1cnc(Br)cc1-c1cc(C)ncc1C(=O)Nc1nnc(OC[C@@H]2CCOC2)s1 (single isomer, unassigned) [Example 245]
≤ 200 | COc1cnc(Cl)cc1-c1cc(C)ncc1C(=O)Nc1nnc(OC[C@H]2CO[C@@H](C)C2)s1 (single isomer, unassigned) [Example 251]
≤ 200 | COc1cnc(Cl)cc1-c1cc(C)ncc1C(=O)Nc1nnc(OC[C@H]2CO[C@H](C)C2)s1 (single isomer, unassigned) [Example 252]
≤ 200 | COc1cnc(Cl)cc1-c1cc(C)ncc1C(=O)Nc1nnc(OC[C@@H]2CO[C@H](C)C2)s1 (single isomer, unassigned) [Example 253]
≤ 200 | COc1cnc(Cl)cc1-c1cc(C)ncc1C(=O)Nc1nnc(OC[C@@H]2CO[C@@H](C)C2)s1 (single isomer, unassigned) [Example 254]
≤ 200 | COc1cnc(Cl)cc1-c1cc(C)ncc1C(=O)Nc1nnc(OC[C@@H]2CCC[C@H]2O)s1 (single isomer, unassigned) [Example 255, 2′-chloro-N-(5-((2-hydroxycyclopentyl)methoxy)-1,3,4-thiadiazol-2-yl)-5′-methoxy-6-methyl-(4,4′-bipyridine)-3-carboxamide]
≤ 200 | COc1cnc(Cl)cc1-c1cc(C)ncc1C(=O)Nc1nnc(OC[C@H]2CCC[C@@H]2O)s1 (single isomer, unassigned) [Example 256, 2′-chloro-N-(5-((2-hydroxycyclopentyl)methoxy)-1,3,4-thiadiazol-2-yl)-5′-methoxy-6-methyl-(4,4′-bipyridine)-3-carboxamide]
